Data on ten compounds can be found in US20250127907A1, “PARP INHIBITORS” (Stablix, Inc., priority 2023, published 2025).

Where two headings read alike, the source gives them in different places.

Experiment [1] deals with T1, PARP1 (Homo sapiens, UniProt P09874). The experiment is described as follows: PARP1-enzyme assay (NAD/NADH-Glo biochemical assay). The settings on record: recombinant PARP1, NAD+ consumption. The protocol: The PARP enzyme catalyzes the transfer of ADP-Ribose from NAD+ onto PAR chains/histone substrates. The catalytic cycle is monitored indirectly with the NAD/NADH-Glo Assay kit from Promega. […] NAD+ consumed is determined by comparison to the no enzyme control.
• Recombinant PARP1 • NAD+/NAHD-Glow assay Kit • Activated DNA, 10 μg/mL • NAD+(Nicotinamide Adenine Dinucleotide), 500 nM • Protein substrate for PARP1: Core Histone from chicken, 10 μg/mL
The letter codes for the PARP1-enzyme assay include: A (<1 nM), B (>1-10 nM), C (>10-100 nM), D (>100-1000 nM), E (>1000 nM), and “-” is not tested. The letter codes for the PARP trapping assay, and parylation assay include: A (<10 nM), B (>10-100 nM), C (>100-1000 nM), […], E (>10000 nM), and “-” is not tested.
Target sequence in this assay (P09874 whole entry, species assumed): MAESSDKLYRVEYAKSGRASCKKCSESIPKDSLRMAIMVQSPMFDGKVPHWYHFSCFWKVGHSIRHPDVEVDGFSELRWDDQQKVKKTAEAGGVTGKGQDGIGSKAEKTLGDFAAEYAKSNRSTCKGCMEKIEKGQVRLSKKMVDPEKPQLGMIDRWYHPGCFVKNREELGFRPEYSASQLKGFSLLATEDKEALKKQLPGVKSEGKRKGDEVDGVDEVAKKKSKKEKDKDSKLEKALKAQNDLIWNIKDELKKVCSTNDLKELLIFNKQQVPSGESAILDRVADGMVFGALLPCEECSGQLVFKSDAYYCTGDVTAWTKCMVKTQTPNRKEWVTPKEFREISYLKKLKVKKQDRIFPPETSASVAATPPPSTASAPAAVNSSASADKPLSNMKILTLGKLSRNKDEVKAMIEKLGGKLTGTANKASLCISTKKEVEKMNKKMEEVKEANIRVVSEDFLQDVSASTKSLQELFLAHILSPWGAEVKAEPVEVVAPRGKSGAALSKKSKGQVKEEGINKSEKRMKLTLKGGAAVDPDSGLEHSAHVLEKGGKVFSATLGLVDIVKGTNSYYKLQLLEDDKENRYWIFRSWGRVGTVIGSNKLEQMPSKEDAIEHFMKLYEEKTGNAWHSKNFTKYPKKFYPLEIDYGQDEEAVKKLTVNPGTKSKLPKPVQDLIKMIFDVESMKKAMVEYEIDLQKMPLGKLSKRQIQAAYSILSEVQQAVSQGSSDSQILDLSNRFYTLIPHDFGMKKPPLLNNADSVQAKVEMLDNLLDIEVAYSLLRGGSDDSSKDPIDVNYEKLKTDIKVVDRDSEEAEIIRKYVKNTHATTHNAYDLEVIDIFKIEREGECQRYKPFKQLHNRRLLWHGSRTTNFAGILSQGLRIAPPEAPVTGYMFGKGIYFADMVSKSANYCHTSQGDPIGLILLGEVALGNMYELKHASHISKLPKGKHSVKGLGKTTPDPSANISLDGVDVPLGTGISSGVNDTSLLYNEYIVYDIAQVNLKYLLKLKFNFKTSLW

Experiment [2] relates to Poly/Mono-ADP Ribose in U2OS cells. Description: PAR in cell western assay (parylation) in U2OS cells. The class given is cell-based. The settings on record: U2OS cells, 6 hrs, 2 mM H2O2, read-out: Parylation (U2OS). Put shortly:
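U2OS cells treated with compound for 6 h, then 2 mM H2O2 for 10 min to induce DNA damage. After methanol fixation, cells stained overnight at 4 °C with anti-mono/poly-ADP-ribose antibody and imaged by infrared in-cell western, normalized to CellTag 700; reported as % control inhibition.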

Experiment [3] deals with HCC1806 cells. Description: Cell proliferation assay (HCC1806). The experiment is classed as cell-based. Conditions: 7 days.
The test system of experiment [4] is MDA-MB-436 cells. The experiment is described as follows: Cell proliferation assay (MDA-MB-436). The settings on record: 7 days. The experiment is classed as cell-based.
Experiment [5] addresses T1, PARP1. The experiment is described as follows: PARP trapping assay in U2OS cells. The class given is cell-based. The arrangement: endogenous in cells; host or cells: U2OS. Conditions: U2OS cells, MMS, 4 hrs; read-out: PARP Trapping (U2OS). The procedure, abridged: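 U2OS cells co-treated with compounds and MMS for 4 h, then soluble proteins extracted with 0.5% Triton X-100, MeOH-fixed and immunostained for PARP1. Chromatin-bound PARP1 quantified as AF488 intensity per DAPI-segmented nucleus; potencies reported as letter-code bins.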
Target sequence in this assay (P09874 whole entry): as the sequence (P09874 whole entry, species assumed) above

Experiment [6] concerns A2780 cells. The experiment is described as follows: Cell proliferation assay (A2780). The experiment is classed as cell-based. Conditions: Homo sapiens, 168 h, 7 days.

In the case of `CCOc1cc(OC)ccc1CNCC(=O)N1CCCC(c2cccc(C(=O)N[C@@H](C(=O)N3CCN(CC45CCC(C(=O)N6CCN(C(=O)c7cc(Cc8n[nH]c(=O)c9ccccc89)ccc7F)CC6)(CC4)CO5)CC3)C3CCCCC3)c2)C1` (stereo partly shown) [Compound I-166], the IC50 in experiment [1] is < 1 nM; in experiment [2] (Homo sapiens) it was 100 to 1000 nM; in experiment [3] (Homo sapiens, 168 h), < 10 nM; in experiment [4] (Homo sapiens, 168 h), 10 to 100 nM; in experiment [5], 10 to 100 nM.

Take `CCc1cccc(-c2cnc(C(=O)N3CCC(CN4CCN(CC(=O)N5CCN(C(=O)c6cc(Cc7n[nH]c(=O)c8ccccc78)ccc6F)CC5)CC4)CC3)c(NC)c2)c1` [Compound I-418]: the IC50 was < 1 nM in experiment [1]; 100 to 1000 nM in experiment [2] (Homo sapiens); 100 to 1000 nM in experiment [6]; < 10 nM in experiment [4] (Homo sapiens, 168 h); 100 to 1000 nM in experiment [5].

Turning to `CCOc1cc(OC)ccc1CNCC(=O)N1CCCC(c2cccc(C(=O)N[C@@H](C(=O)NCCOCCOCCOCCOCCNCC(=O)N3CCN(C(=O)c4cc(Cc5n[nH]c(=O)c6ccccc56)ccc4F)CC3)C3CCCCC3)c2)C1` (stereo partly shown) [Compound I-31], the IC50 in experiment [1] is < 1 nM; in experiment [2] (Homo sapiens) it was < 10 nM; in experiment [3] (Homo sapiens, 168 h), < 10 nM; in experiment [4] (Homo sapiens, 168 h) it was 100 to 1000 nM.

On to `CCOc1cc(OC)ccc1CNCC(=O)N1CCC[C@H](c2cccc(C(=O)N[C@@H](C(=O)N3CCN(CC4CCN(CC(=O)N5CCN(C(=O)c6cc(Cc7n[nH]c(=O)c8ccccc78)ccc6F)CC5)CC4)CC3)C3CCCCC3)c2)C1` [Compound I-167], for which the IC50 in experiment [1] was < 1 nM; in experiment [2] (Homo sapiens), 100 to 1000 nM; in experiment [3] (Homo sapiens, 168 h), < 10 nM; in experiment [4] (Homo sapiens, 168 h) it was 100 to 1000 nM; in experiment [5], 10 to 100 nM.

Regarding `CCc1cccc(-c2cnc(C(=O)N3CCC(CN4CCN(CC(=O)N5CCN(C(=O)c6cc(Cc7n[nH]c(=O)c8ccccc78)ccc6F)CC5)CC4)CC3)c(OC(F)(F)F)c2)c1` [Compound I-420], the IC50 is < 1 nM in experiment [1]; 100 to 1000 nM in experiment [2] (Homo sapiens); 100 to 1000 nM in experiment [6]; < 10 nM in experiment [4] (Homo sapiens, 168 h); 10 to 100 nM in experiment [5].

For `Cc1sc(CN2CCCC2c2nnc3n2CCCCC3)nc1C12CC(C(=O)NCCOCCOCCNCC(=O)N3CCN(C(=O)c4cc(Cc5cccc6c(=O)[nH]ncc56)ccc4F)CC3)(C1)C2` (stereo not shown) [Compound I-193], the IC50 in experiment [1] was < 1 nM; in experiment [2], 100 to 1000 nM; in experiment [3], < 10 nM; in experiment [4] it was 100 to 1000 nM; in experiment [5], > 10000 nM.

Consider `CCOc1cc(OC)ccc1CNCC(=O)N1CCCC(c2cccc(C(=O)N[C@@H](C(=O)N3CCC(OC4CCN(CC(=O)N5CCN(C(=O)c6cc(Cc7n[nH]c(=O)c8ccccc78)ccc6F)CC5)CC4)CC3)C3CCCCC3)c2)C1` (stereo partly shown) [Compound I-173], for which the IC50 in experiment [1] is < 1 nM; in experiment [2] (Homo sapiens), 100 to 1000 nM; in experiment [3] (Homo sapiens, 168 h), < 10 nM; in experiment [4] (Homo sapiens, 168 h), 10 to 100 nM; in experiment [5] it was 10 to 100 nM.

With `COC12CCC(CNCC(=O)N3CCCC(c4cccc(C(=O)N[C@@H](C(=O)N5CCC(CN6CCN(CC(=O)N7CCN(C(=O)c8cc(Cc9n[nH]c(=O)c%10ccccc9%10)ccc8F)CC7)CC6)CC5)C5CCCCC5)c4)C3)(CC1)OC2` (stereo partly shown) [Compound I-165], the IC50 was < 1 nM in experiment [1]; 100 to 1000 nM in experiment [2] (Homo sapiens); < 10 nM in experiment [3] (Homo sapiens, 168 h); 10 to 100 nM in experiment [4] (Homo sapiens, 168 h); 100 to 1000 nM in experiment [5].

`O=C(N[C@@H](C(=O)N1CCN(CC2CCN(CC(=O)N3CCN(C(=O)c4cc(Cc5n[nH]c(=O)c6ccccc56)ccc4F)CC3)CC2)CC1)C1CCCCC1)c1cccc(C2CCCN(C(=O)CNCc3ccc(F)cc3F)C2)c1` (stereo partly shown) [Compound I-184]: the IC50 is < 1 nM in experiment [1]; 100 to 1000 nM in experiment [2] (Homo sapiens); 100 to 1000 nM in experiment [6]; 10 to 100 nM in experiment [4] (Homo sapiens, 168 h); 100 to 1000 nM in experiment [5].

In the case of `CCc1cccc(-c2cnc(C(=O)N3CCN(CC4CCN(CC(=O)N5CCN(C(=O)c6cc(Cc7n[nH]c(=O)c8ccccc78)ccc6F)CC5)CC4)CC3)c(NC(=O)CNCc3ccncn3)c2)c1` [Compound I-238], the IC50 in experiment [1] was < 1 nM; in experiment [2] (Homo sapiens) it was 100 to 1000 nM; in experiment [6] it was 1000 to 10000 nM; in experiment [4] (Homo sapiens, 168 h), 10 to 100 nM; in experiment [5] it was 100 to 1000 nM.
